Test results reported in article PMC9187519, “In vivo visualization of fluorescence reflecting CDK4 activity in a breast cancer mouse model” (MedComm, 2022).

Legend:
[1] = system: CDK4 kinase activity in MCF‐7 cells; test: Cell microplate fluorescence imaging with CPP30‐Lipo/CDKACT4; format: cell-based, human; conditions: n = 3; for reduction of fluorescence intensity: probe 12 h
Experimental: (§1) Cells (∼8 × 10^3 cells per well) were seeded in black 96‐well plates and incubated with CPP30‐Lipo/CDKACT4 for 12 h after siRNA transfection or treatment with graded concentrations of palbociclib (HY‐50767; Medchemexpress). Then, the cells were washed three times with PBS and refilled with fresh PBS. Cell fluorescence signals were immediately detected using the IVIS Lumina II imaging system (PerkinElmer).

CDK4 = system: CDK4; parameters: method as in PMID 31482107; conditions: for CDK4; cited from earlier work
Source text: We next investigated whether CPP30‐Lipo/CDKACT4 could be used to monitor the inhibition by the CDK4 inhibitor palbociclib in living cells.

CDK4/Cyclin D = target: T1, CDK4/Cyclin D (Homo sapiens, UniProt P11802); test: CDKACT4 biosensor fluorescence in MCF‐7 cell extracts; format: biochemical; conditions: incubation with cell extracts prepared with different concentrations of palbociclib, n = 5
T1 construct: Fluorescence changes of CDKACT4 biosensor incubated with MCF‐7 cell extracts; endogenous in cells; host or cells: MCF-7 breast cancer cell extracts
T1 sequence (P11802 2-303 limits assumed): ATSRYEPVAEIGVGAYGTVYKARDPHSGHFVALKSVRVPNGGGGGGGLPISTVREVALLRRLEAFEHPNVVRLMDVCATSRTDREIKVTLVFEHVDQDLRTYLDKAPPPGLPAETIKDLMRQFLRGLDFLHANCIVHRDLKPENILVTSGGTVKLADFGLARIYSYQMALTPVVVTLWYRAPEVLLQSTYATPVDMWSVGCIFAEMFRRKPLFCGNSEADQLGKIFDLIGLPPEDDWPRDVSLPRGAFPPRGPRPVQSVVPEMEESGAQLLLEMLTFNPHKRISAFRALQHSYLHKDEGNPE
T1 sequence (P24385 whole entry partner): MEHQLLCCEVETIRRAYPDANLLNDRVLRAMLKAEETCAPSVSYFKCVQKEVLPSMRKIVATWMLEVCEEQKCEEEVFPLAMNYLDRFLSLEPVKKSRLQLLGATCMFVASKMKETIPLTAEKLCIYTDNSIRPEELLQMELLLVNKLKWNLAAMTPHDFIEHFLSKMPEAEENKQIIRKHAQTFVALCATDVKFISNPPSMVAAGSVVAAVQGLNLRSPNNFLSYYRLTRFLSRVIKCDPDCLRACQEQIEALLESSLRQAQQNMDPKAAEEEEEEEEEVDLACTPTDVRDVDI
Experimental: We initially determined whether the CDKACT4 peptide biosensor that we synthesized was effective at monitoring CDK4 kinase activity in MCF‐7 breast cancer cell extracts.
FIGURE 2 Characterization and spectral stability of CPP30‐Lipo/CDKACT4. (A) Fluorescence changes of CDKACT4 biosensor incubated with MCF‐7 cell extracts (red), CDKACT4 alone (blue), and cell extracts alone (green) during 180 min (n = 5). (B) Relative fluorescence intensity of CDKACT4 biosensor incubated with MCF‐7 cell extracts was monitored over time after treatment with different concentrations of palbociclib (n = 5). (C) Relative fluorescence intensity of MCF‐7 cell extracts‐incubated CDKACT4 at 120 min post‐treated with different concentrations of palbociclib from (b) (n = 5, **p < 0.01). (D) Transmission electron microscopy (TEM) images of CPP30‐Lipo/CDKACT4. Scale bar = 200 nm. (E) Diameter distribution of CPP30‐Lipo/CDKACT4. (F, G) UV–vis absorption spectra (F) and fluorescence emission spectra (G) of water, 5‐TAMRA, CDKACT4, and CPP30‐Lipo/CDKACT4. (H, I) Changes in absorption and fluorescence spectra of CPP30‐Lipo/CDKACT4 during 96 h in water. The samples were stored at room temperature in the dark

[2] = system: CDK4 kinase activity in T‐47D cells; test: Cell microplate fluorescence imaging with CPP30‐Lipo/CDKACT4 in T‐47D; format: cell-based, human; conditions: different concentrations of palbociclib, n=3
Experimental: as §1

[3] = system: pRb (S795) in MCF‐7 cells; test: Western blot of pRb (S795); format: cell-based, human
Experimental: Cells or minced tumor tissues were washed three times with ice‐cold PBS and lysed in RIPA buffer containing protease inhibitor cocktail (Roche Molecular Systems) and phosphatase inhibitor cocktail (Bimake). Tissues were further ground using a glass homogenizer on ice. Protein concentrations were determined with a BCA kit (Solarbio). Subsequent steps were performed as recently described.[36]

MCF‐7 cells = test: Cell cycle analysis (propidium iodide, flow cytometry); format: cell-based, human; conditions: MCF‐7, increasing concentration of palbociclib, n = 3
Experimental: Cells were harvested and fixed in 70% ethanol at 4 °C overnight. Then, the samples were incubated in a solution of 10 mg/ml RNase and 1 mg/ml propidium iodide (Yeasen Biotech) at 37 °C for 30 min in the dark. The DNA content was determined using flow cytometry (Becton, Dickinson & Co.).

MCF‐7 tumor xenografts = test: In‐vivo fluorescence imaging, MRI and tumor analysis of MCF‐7 tumor xenografts; parameters: species or system BALB/c nude mice; conditions: for change of tumor/muscle (T/M) fluorescence signal ratio: 150 mg/kg daily oral gavage 7 days, pre vs post, average, n = 6
Experimental: For MCF‐7 tumor model establishment, 6–8‐week old female BALB/c nude mice purchased from Xiamen University Laboratory Animal Center were first subcutaneously implanted with 60‐day release 17β‐estradiol pellets (Innovative Research of America) in the right side of the neck. Three days later, 2 × 10^6 MCF‐7 cells were injected subcutaneously in 1:1 PBS:Matrigel (BioCoat) into the right leg of the nude mice. Tumors were measured by caliper two or three times per week.
When MCF‐7 tumors grew to a volume of 75–100 mm^3, the mice were randomly divided into two groups (n = 6) and given palbociclib (150 mg/kg diluted in […] sodium D‐lactate) or sterile water daily by oral gavage. Magnetic resonance imaging was performed before (0 days) and 7 days after treatment using a 9.4T BioSpec MicroMRI (Bruker), and fluorescence imaging was also performed using the IVIS Lumina II imaging system (PerkinElmer) at the observation time points after intravenous injection with CPP30‐Lipo/CDKACT4 (10 μl/g body weight, containing 30 μM CDKACT4). After imaging, tumor tissue was collected for IHC staining.
Tumors were fixed in 4% paraformaldehyde, embedded in paraffin, and cut into 4‐μm slices. Then, the sections were stained with rabbit monoclonal antibody to Rb (Phospho S795) (1:100 dilution, ab47474; Abcam) or Ki67 (1:500 dilution, 9449; CST). Finally, the sections were observed under an optical microscope.

In the case of CCN1CCN(Cc2ccc(Nc3ncc(F)c(-c4cc(F)c5nc(C)n(C(C)C)c5c4)n3)nc2)CC1 [abemaciclib], the “reduction of fluorescence intensity” value ([1]; MCF‐7, inhibitor 10 nM) is reported as 14.37%, the “reduction of fluorescence intensity” value ([1]; MCF‐7, inhibitor 100 nM) is reported as 50.13% and the “reduction of fluorescence intensity” value ([1]; MCF‐7, inhibitor 1000 nM) is reported as 81.35%. The IC50 (CDK4) was […].
For CC(=O)c1c(C)c2cnc(Nc3ccc(N4CCNCC4)cn3)nc2n(C2CCCC2)c1=O [palbociclib], the “fluorescence of the CDKACT4 peptide biosensor” value (CDK4/Cyclin D) was “decreased in a dose‐dependent manner”, the “fluorescence intensity under a microscope” value ([1]; MCF‐7, confocal/fluorescence microscopy after incubation with probe) was “significant dose‐dependent reduction” and the “reduction of fluorescence intensity” value ([1]; MCF‐7, inhibitor 10 nM) was 3.17%. For the same compound, the “reduction of fluorescence intensity” value ([1]; MCF‐7, inhibitor 100 nM) was 44.70%, the “reduction of fluorescence intensity” value ([1]; MCF‐7, inhibitor 1000 nM) was 60.67% and the “fluorescence intensity of CPP30‐Lipo/CDKACT4” value [2] was “decreased with the increasing dose”. The “pRb (S795) protein level” value [3] was “dose‐dependent decrease”, the “cells arrested in the G1 phase” value (MCF‐7 cells) was “up to 86.39%” and the “change of tumor/muscle (T/M) fluorescence signal ratio” value (MCF‐7 tumor xenografts; 12 h after caudal vein injection of probe) was “–18.86%”. The “change of tumor/muscle (T/M) fluorescence signal ratio” value (MCF‐7 tumor xenografts; 24 h after caudal vein injection of probe) was “–18.69%”, the “change of tumor/muscle (T/M) fluorescence signal ratio” value (MCF‐7 tumor xenografts; 48 h after caudal vein injection of probe) was “–18.49%” and the “longest diameter of the tumor by MRI” value (MCF‐7 tumor xenografts; 150 mg/kg daily, day 0 vs day 7, n = 6) was “no significant change”. The tumor growth (MCF‐7 tumor xenografts; after 14 days of treatment, n = 4) was “significantly inhibited”, the “percentage of cells positive for pRb in tumors” value (MCF‐7 tumor xenografts; baseline vs day 7, immunohistochemical staining pRb (S795)) was “clear reductions” and the “tumor volume versus control group” value (MCF‐7 tumor xenografts; during the 7 days of treatment, caliper) was “no significant difference”. For the same compound, the “ex vivo fluorescence intensity of tumors versus control group” value (MCF‐7 tumor xenografts; palbociclib 7 days, 48 h post‐injection of probe, n = 3, p < 0.05) was “significantly lower” and the “Ki‐67 staining in tumors” value (MCF‐7 tumor xenografts; palbociclib 7 days, immunohistochemical staining) was “substantially reduced”.
